Like-named read-outs stand apart in the source and are kept apart here.
Legend:
RS4; 11Bcl-2-G101V cells = assay: CellTiter-Glo (CTG) cell viability assay in RS4;11-Bcl-2-G101V cells; type: cell-based; details: 72 h, 10% FBS, 3 days
Procedure: RS4; 11Bcl-2-G101V, RS4; 11Bcl-2-D103E, RS4; 11Bcl-2-V156D and RS4; 11Bcl-2-G101V-D103E cells were obtained from Cobioer Biosciences. Cells were maintained in the RPMI-1640 medium with 10% FBS, 1% P/S and puromycin (1 μg/mL) at 37° C. and an atmosphere of 5% CO2.
• The effect of representative Compounds of the Disclosure on cell viability was determined using CellTiter-Glo® (CTG) luminescent cell viability assay (Promega, USA) according to the manufacturer's instructions. 95 μL of cell suspension (10000 cells/well) in culture medium were seeded into 96-well plates and cultured 4 hours. Each tested compound was serially diluted in blank culture medium, and 5 μL of the compound dilution was added to the corresponding well of the cell plate. After the addition of the tested compound, the cells were incubated at 37° C. in an atmosphere of 5% CO2 for 3 days. At the end of 3 days, 30 μL of CTG solution was added to each well of the plate and mix contents for 2 minutes on an orbital shaker. Allow the plate to incubate at room temperature for 15 mins to stabilize signal and record RLU on the Biotek plate reader. The readings were normalized to the vehicle cells, and the IC50 was calculated using GraphPad Prism 8 software.

Bcl-2 WT = Bcl-2 WT (Homo sapiens, UniProt P10415); assay: Bcl-2 WT inhibition, fluorescence polarization (Flu-BIM tracer) binding assay
Sequence of Bcl-2 WT (P10415 whole entry): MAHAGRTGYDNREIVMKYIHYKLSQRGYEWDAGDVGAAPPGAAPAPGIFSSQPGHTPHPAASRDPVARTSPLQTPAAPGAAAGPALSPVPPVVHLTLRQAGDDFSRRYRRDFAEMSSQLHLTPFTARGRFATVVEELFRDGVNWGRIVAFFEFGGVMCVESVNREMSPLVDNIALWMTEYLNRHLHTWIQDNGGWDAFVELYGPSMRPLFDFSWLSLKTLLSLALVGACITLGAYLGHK

MV-4-11 cells = assay: CCK-8 cell viability assay in MV-4-11 cells; type: cell-based; details: Homo sapiens, MV4-11, 72 h, 10% FBS, 3 days
Procedure: MV-4-11 cells were obtained from University of Michigan. Cells were maintained in the RPMI-1640 medium with 10% FBS and 1% P/S at 37° C. and an atmosphere of 5% CO2.
• The effect of representative Compounds of the Disclosure on cell viability was determined using Cell Counting Kit-8 (CCK-8) assay (Shanghai Life iLab Biotech) according to the manufacturer's instructions. Each tested compound was serially diluted in culture medium, and 100 μL of the compound dilution was added to the corresponding well of the cell plate. 100 μL of MV-4-11 cell suspension (20000 cells/well) in culture medium were seeded into 96-well plates. The cells were incubated at 37° C. in an atmosphere of 5% CO2 for 3 days. At the end of 3 days, 20 μL of CCK-8 solution was added to each well of the plate and incubated for 1-4 hours. The plates were read at 450 nm on the Biotek plate reader. The readings were normalized to the vehicle cells, and the IC50 was calculated using GraphPad Prism 8 software.

[1] = FP, 20 nM Bcl2, 5 nM Flu-BIM, 1 h incubation, read-out: Bcl-2 w.t. (FP)

| Structure (SMILES) | IC50 (RS4; 11Bcl-2-G101V cells) | IC50 (Bcl-2 WT) | IC50 (MV-4-11 cells) | IC50 (Bcl-2 WT; [1]) |
| --- | --- | --- | --- | --- |
| CC1(C)CCC(CN2CCN(c3ccc(C(=O)NS(=O)(=O)c4ccc(NC[C@H]5COCCO5)c([N+](=O)[O-])c4)c(Oc4cnc5[nH]ccc5c4)c3)CC2)=C(c2cc(C(=O)Nc3ccccc3)cs2)C1 [Example 17, (S)-5-(2-((4-(4-(((4-(((1,4-dioxan-2-yl)methyl)amino)-3-nitrophenyl)sulfonyl)carbamoyl)-3-((1H-pyrrolo[2,3-b]pyridin-5-yl)oxy)phenyl)piperazin-1-yl)methyl)-5,5-dimethylcyclohex-1-en-1-yl)-N-phenylthiophene-3-carboxamide] | 4250 nM | 30.9 nM | 262 nM | – |
| CC1(C)CCC(CN2CCN(c3ccc(C(=O)NS(=O)(=O)c4ccc(NC[C@H]5COCCO5)c([N+](=O)[O-])c4)c(Oc4cnc5[nH]ccc5c4)c3)CC2)=C(c2cc(NC(=O)c3ccccc3)cs2)C1 [Example 18, (S)—N-((4-(((1,4-dioxan-2-yl)methyl)amino)-3-nitrophenyl)sulfonyl)-2-((1H-pyrrolo[2,3-b]pyridin-5-yl)oxy)-4-(4-((2-(4-benzamidothiophen-2-yl)-4,4-dimethylcyclohex-1-en-1-yl)methyl)piperazin-1-yl)benzamide] | 2040 nM | – | 323 nM | 37.5 nM |
| CC1(C)CCC(CN2CCN(c3ccc(C(=O)NS(=O)(=O)c4ccc(NC[C@H]5COCCO5)c([N+](=O)[O-])c4)c(Oc4cnc5[nH]ccc5c4)c3)CC2)=C(c2cc(Nc3ncccn3)cs2)C1 [Example 19, (S)—N-((4-(((1,4-dioxan-2-yl)methyl)amino)-3-nitrophenyl)sulfonyl)-2-((1H-pyrrolo[2,3-b]pyridin-5-yl)oxy)-4-(4-((4,4-dimethyl-2-(4-(pyrimidin-2-ylamino)thiophen-2-yl)cyclohex-1-en-1-yl)methyl)piperazin-1-yl)benzamide] | 980 nM | – | 138 nM | 24.6 nM |
| CC1(C)CCC(CN2CCN(c3ccc(C(=O)NS(=O)(=O)c4ccc(NCC5CCOCC5)c([N+](=O)[O-])c4)c(Oc4cnc5[nH]ccc5c4)c3)CC2)=C(c2csc(CN3CCOCC3)c2)C1 [Example 21, 2-((1H-pyrrolo[2,3-b]pyridin-5-yl)oxy)-4-(4-((4,4-dimethyl-2-(5-(morpholinomethyl)thiophen-3-yl)cyclohex-1-en-1-yl)methyl)piperazin-1-yl)-N-((3-nitro-4-(((tetrahydro-2H-pyran-4-yl)methyl)amino)phenyl)sulfonyl)benzamide] | 3790 nM | – | 323 nM | 27.1 nM |
| CC1(C)CCC(CN2CCN(c3ccc(C(=O)NS(=O)(=O)c4ccc(NC[C@H]5COCCO5)c([N+](=O)[O-])c4)c(Oc4cnc5[nH]ccc5c4)c3)CC2)=C(c2cc(CN3CCOCC3)cs2)C1 [Example 22, (S)—N-((4-(((1,4-dioxan-2-yl)methyl)amino)-3-nitrophenyl)sulfonyl)-2-((1H-pyrrolo[2,3-b]pyridin-5-yl)oxy)-4-(4-((4,4-dimethyl-2-(4-(morpholinomethyl)thiophen-2-yl)cyclohex-1-en-1-yl)methyl)piperazin-1-yl)benzamide] | 440 nM | – | 83 nM | 25.4 nM |
| CC1(C)CCC(CN2CCN(c3ccc(C(=O)NS(=O)(=O)c4ccc(NC[C@H]5CC[C@@](C)(O)CC5)c([N+](=O)[O-])c4)c(Oc4cnc5[nH]ccc5c4)c3)CC2)=C(c2cc(CN3CCOCC3)cs2)C1 [Example 23, 2-((1H-pyrrolo[2,3-b]pyridin-5-yl)oxy)-4-(4-((4,4-dimethyl-2-(4-(morpholinomethyl)thiophen-2-yl)cyclohex-1-en-1-yl)methyl)piperazin-1-yl)-N-((4-((((1s,4s)-4-hydroxy-4-methylcyclohexyl)methyl)amino)-3-nitrophenyl)sulfonyl)benzamide] | 930 nM | – | 180 nM | 15.7 nM |
| CC1(C)CCC(CN2CCN(c3ccc(C(=O)NS(=O)(=O)c4ccc(NC[C@H]5CC[C@](C)(O)CC5)c([N+](=O)[O-])c4)c(Oc4cnc5[nH]ccc5c4)c3)CC2)=C(c2cc(CN3CCOCC3)cs2)C1 [Example 24, 2-((1H-pyrrolo[2,3-b]pyridin-5-yl)oxy)-4-(4-((4,4-dimethyl-2-(4-(morpholinomethyl)thiophen-2-yl)cyclohex-1-en-1-yl)methyl)piperazin-1-yl)-N-((4-((((1r,4r)-4-hydroxy-4-methylcyclohexyl)methyl)amino)-3-nitrophenyl)sulfonyl)benzamide] | 340 nM | – | 40 nM | 15.9 nM |
| CC1(C)CCC(CN2CCN(c3ccc(C(=O)NS(=O)(=O)c4ccc(NCC5CCOCC5)c([N+](=O)[O-])c4)c(Oc4cnc5[nH]ccc5c4)c3)CC2)=C(c2ccsc2CN2CCOCC2)C1 [Example 25, 2-((1H-pyrrolo[2,3-b]pyridin-5-yl)oxy)-4-(4-((4,4-dimethyl-2-(2-(morpholinomethyl)thiophen-3-yl)cyclohex-1-en-1-yl)methyl)piperazin-1-yl)-N-((3-nitro-4-(((tetrahydro-2H-pyran-4-yl)methyl)amino)phenyl)sulfonyl)benzamide] | 1810 nM | – | 225 nM | 25.4 nM |
| CC1(C)CCC(CN2CCN(c3ccc(C(=O)NS(=O)(=O)c4ccc(NCC5CCOCC5)c([N+](=O)[O-])c4)c(Oc4cnc5[nH]ccc5c4)c3)CC2)=C(c2ccc(CN3CCOCC3)s2)C1 [Example 26, 2-((1H-pyrrolo[2,3-b]pyridin-5-yl)oxy)-4-(4-((4,4-dimethyl-2-(5-(morpholinomethyl)thiophen-2-yl)cyclohex-1-en-1-yl)methyl)piperazin-1-yl)-N-((3-nitro-4-(((tetrahydro-2H-pyran-4-yl)methyl)amino)phenyl)sulfonyl)benzamide] | 2590 nM | – | 246 nM | 26.4 nM |
| CC1(C)CCC(CN2CCN(c3ccc(C(=O)NS(=O)(=O)c4ccc(NC[C@H]5COCCO5)c([N+](=O)[O-])c4)c(Oc4cnc5[nH]ccc5c4)c3)CC2)=C(c2cc(CN3CCC(N4CCOCC4)CC3)cs2)C1 [Example 28, (S)—N-((4-(((1,4-dioxan-2-yl)methyl)amino)-3-nitrophenyl)sulfonyl)-2-((1H-pyrrolo[2,3-b]pyridin-5-yl)oxy)-4-(4-((4,4-dimethyl-2-(4-((4-morpholinopiperidin-1-yl)methyl)thiophen-2-yl)cyclohex-1-en-1-yl)methyl)piperazin-1-yl)benzamide] | 1210 nM | – | 276 nM | 20.7 nM |
| C[C@@H]1CN(Cc2csc(C3=C(CN4CCN(c5ccc(C(=O)NS(=O)(=O)c6ccc(NC[C@H]7COCCO7)c([N+](=O)[O-])c6)c(Oc6cnc7[nH]ccc7c6)c5)CC4)CCC(C)(C)C3)c2)C[C@H](C)N1C [Example 29, N-((4-((((S)-1,4-dioxan-2-yl)methyl)amino)-3-nitrophenyl)sulfonyl)-2-((1H-pyrrolo[2,3-b]pyridin-5-yl)oxy)-4-(4-((4,4-dimethyl-2-(4-(((3S,5R)-3,4,5-trimethylpiperazin-1-yl)methyl)thiophen-2-yl)cyclohex-1-en-1-yl)methyl)piperazin-1-yl)benzamide] | 750 nM | – | 422 nM | 26.7 nM |
| CC1(C)CCC(CN2CCN(c3ccc(C(=O)NS(=O)(=O)c4ccc(NC[C@H]5COCCO5)c([N+](=O)[O-])c4)c(Oc4cnc5[nH]ccc5c4)c3)CC2)=C(c2cc(CN3CCN4CCOC[C@H]4C3)cs2)C1 [Example 30, N-((4-((((S)-1,4-dioxan-2-yl)methyl)amino)-3-nitrophenyl)sulfonyl)-2-((1H-pyrrolo[2,3-b]pyridin-5-yl)oxy)-4-(4-((2-(4-(((R)-hexahydropyrazino[2,1-c][1,4]oxazin-8(1H)-yl)methyl)thiophen-2-yl)-4,4-dimethylcyclohex-1-en-1-yl)methyl)piperazin-1-yl)benzamide] | 1440 nM | – | 564 nM | 23.6 nM |
| CC1(C)CCC(CN2CCN(c3ccc(C(=O)NS(=O)(=O)c4ccc(NC[C@H]5COCCO5)c([N+](=O)[O-])c4)c(Oc4cnc5[nH]ccc5c4)c3)CC2)=C(c2cc(CN3CCN(C4COC4)CC3)cs2)C1 [Example 31, (S)—N-((4-(((1,4-dioxan-2-yl)methyl)amino)-3-nitrophenyl)sulfonyl)-2-((1H-pyrrolo[2,3-b]pyridin-5-yl)oxy)-4-(4-((4,4-dimethyl-2-(4-((4-(oxetan-3-yl)piperazin-1-yl)methyl)thiophen-2-yl)cyclohex-1-en-1-yl)methyl)piperazin-1-yl)benzamide] | 880 nM | – | 147 nM | 26 nM |

Reference: patent publication US12577245B2, “Sulfonyl benzamide derivatives as Bcl-2 inhibitors” (ASCENTAGE PHARMA (SUZHOU) CO., LTD., priority 2021, dated 2026)
